# Measured values taken from patent US20060088596A1, “Solubilizing a drug for use in a coating” (ATRIUM MEDICAL CORPORATION, priority 2004, published 2006).
# Assays:
# [1] = Maximum solubility / drug loading of therapeutic agent in vitamin E / bio-absorbable carrier base coating (crystal inspection after solvent removal); assay type: physicochemical; conditions: for maximum solubility: NMP
# Excerpt: The amount of solvent that can be included in compositions of the present invention is not particularly limited. In accordance with one embodiment of the present invention, the amount of the therapeutic agent to be dissolved can be an amount up to the maximum amount that can be dissolved in the solvent, vitamin E compound and the bio-absorbable carrier component. The maximum amount of the therapeutic agent that can be dissolved is readily determined by simple mixing, as the presence of any non-dissolved therapeutic agent is apparent after solvent removal on visual inspection. In various embodiments, the amount of the therapeutic agent will be less than the maximum that can be dissolved. Upon administration to a subject of the therapeutic agent dissolved in the bio-absorbable carrier and the solvent, the amount of the given solvent can be limited to a pharmaceutically acceptable amount, which can be readily determined by one of skill in the art. In various aspects, it can be appropriate to include amounts of solvents in excess of pharmaceutically acceptable amounts, with excess solvent removed prior to providing the administration of the composition using conventional techniques such as evaporation.
# Referring again to FIG. 1, the ratio of a vitamin E compound and the bio-absorbable carrier component is then determined (step 130). […] The bio-absorbable carrier component can include fish oil, fish oil mono, di and triglycerides, free fatty acids, fatty acid esters, partially oxidized oil, or hydrolyzed oil and any derivatives. After the formulations are made the solvent is removed from the sample under vacuum and the drug formulation is inspected under a microscope for crystal formation. The level of soluble drug can be influenced by such factors as vitamin E level, fish oil level, fatty acid ester content, free fatty acid content, mono, di or triglyceride content, presence of oxidation, or by hydrolysis byproducts of the oil. The amount of soluble drug can also be effected by the solvent and/or solvent loading that is used to load the drug into the formulation.
# Referring again to FIG. 1, the bio-absorbable carrier component and the vitamin E compound or a combination thereof are provided (step 130). In accordance with one aspect of the present invention, the bio-absorbable carrier component and the vitamin E compound can be mixed together, for example, by vortexing, sonicating, stirring, rolling, or shaking, to form a second mixture (step 140). Accordingly, the second mixture can be mixed first, the first mixture can be mixed first, or the first mixture and the second mixture can be mixed substantially simultaneously. The first mixture and the second mixture can then be mixed (step 150) such that the therapeutic agent is dissolved, or, if the therapeutic agent was previously dissolved in the solvent, the therapeutic agent remains dissolved. After mixing the first mixture and the second mixture, the solvent is removed by techniques well known in the art, for example, by vacuum, washing, heating, evaporation and the like (step 160). Upon removal of the solvent, the resulting solution can be inspected for presence of crystal formation by techniques well known in the art (step 170). Suitable techniques for inspection for the presense of crystal formation include, for example, visual inspection, microscopic inspections, as well as chemical analysis techniques such as scanning electron microscopy (SEM), environmental scanning electron microscopy (ESEM), differential scanning calorimetry (DSC) and atomic force microscopy (AFM).
# A bio-absorbable carrier component in combination with a vitamin E compound was made by mixing 1.5 grams of vitamin E and 3.5 grams of fish oil to form a base coating (30% vitamin E). A sample was then prepared by first dissolving 28 mg of rapamycin in 529 mg of NMP (N-methyl-2-pyrrolidone).
# Porcine Coronary Model = conditions: stent coated with agent solubilized in eicosapentaenoic acid oil vs eicosapentaenoic acid oil coated stents; cited from earlier work
smiles,measurement,setting,value
CC(=O)O[C@H]1C(=O)[C@@]2(C)[C@H]([C@H](OC(=O)c3ccccc3)[C@]3(O)C[C@H](OC(=O)[C@H](O)[C@@H](NC(=O)c4ccccc4)c4ccccc4)C(C)=C1C3(C)C)[C@]1(OC(C)=O)CO[C@@H]1C[C@@H]2O [paclitaxel],maximum level of drug loading attainable before crystals began to form after drying,"[1]; 70% vitamin E/30% fish oil base coat, drug loaded from ethanol",4.9%
same,dissolution state of drug in coating after drying,"[1]; 70% vitamin E/30% fish oil, 4.9% by weight loading using N-methyl-2-pyrrolidone",not totally dissolved
same,dissolution state of drug in coating after drying,"[1]; 70% vitamin E/30% fish oil, 5% by weight loading using ethanol",completely dissolved
COc1ccc2[nH]cc(CCNC(C)=O)c2c1 [melatonin],maximum solubility,[1]; 70% vitamin E and 30% fish oil fatty acid formulation,greater than 28%
same,maximum solubility,[1]; 70% vitamin E and 30% fish oil formulation,11.5%
same,dissolution state of drug in coating after drying,"[1]; 70% vitamin E and 30% fish oil, 9% by weight loading using N-methyl-2-pyrrolidone",totally dissolved
same,dissolution state of drug in coating after drying,"[1]; 70% vitamin E and 30% fish oil, 9% by weight loading using ethanol",forms crystals
same,maximum level of drug loading attainable before crystals began to form after drying,"[1]; 70% vitamin E/30% fish oil base coat, drug loaded from NMP",11.5%
same,maximum level of drug loading attainable before crystals began to form after drying,"[1]; 70% vitamin E/30% fish oil fatty acids (FOFA) base coat, drug loaded from NMP",28%
C=C1[C@@H](C)[C@H]2[C@H](Cc3ccccc3)NC(=O)[C@]23[C@H](OC(C)=O)/C=C/[C@@](C)(O)C(=O)[C@@H](C)C/C=C/[C@H]3[C@@H]1O [cytochalasin D],less area stenosis compared to the control group,Porcine Coronary Model,38%
same,less intimal hyperplasia compared to the control group,Porcine Coronary Model,39%
